In data set [1] the target is Metabotropic glutamate receptor 2 (Homo sapiens, UniProt Q14416). Briefly: Displacement of [3H]-MGS0008 from mGluR2 expressed in CHO cells. In kind it is cell-based. Background: In a radioligand displacement assay an active substance lowers the binding of a labelled ligand.
Data set [2] in a line: Half life in Sprague-Dawley rat at 10 mg/kg, po. The class given is ADME, organism-based. Set-up: dose 10 mg/kg, route oral. The conditions noted are these: in vivo.
Data set [3] in a line: Cmax in Sprague-Dawley rat at 10 mg/kg, po. The class given is ADME, organism-based. Set-up: dose 10 mg/kg, route oral. The conditions noted are these: in vivo.
Data set [4] can be described thus: AUC (0 to infinity) in Sprague-Dawley rat at 10 mg/kg, po. The class given is ADME, organism-based. Set-up: dose 10 mg/kg, route oral, time infinity. The following applies: plasma.
The nature of data set [5]: Tmax in Sprague-Dawley rat at 10 mg/kg, po. The following applies: in vivo. The class given is ADME, organism-based. Details: dose 10 mg/kg, route oral.
A short description of data set [6]: Transformation of (+)-17 to (+)-16a in rat liver S9 fraction at 3 uM after 60 mins.
Data set [7] can be described thus: Transformation of (+)-17 to (+)-16a in monkey liver S9 fraction at 3 uM after 60 mins. The conditions noted are these: rhesus monkey.
The nature of data set [8]: Transformation of (+)-17 to (+)-16a in human liver S9 fraction at 3 uM after 60 mins.

Sequence of Metabotropic glutamate receptor 2 (Q14416 whole entry): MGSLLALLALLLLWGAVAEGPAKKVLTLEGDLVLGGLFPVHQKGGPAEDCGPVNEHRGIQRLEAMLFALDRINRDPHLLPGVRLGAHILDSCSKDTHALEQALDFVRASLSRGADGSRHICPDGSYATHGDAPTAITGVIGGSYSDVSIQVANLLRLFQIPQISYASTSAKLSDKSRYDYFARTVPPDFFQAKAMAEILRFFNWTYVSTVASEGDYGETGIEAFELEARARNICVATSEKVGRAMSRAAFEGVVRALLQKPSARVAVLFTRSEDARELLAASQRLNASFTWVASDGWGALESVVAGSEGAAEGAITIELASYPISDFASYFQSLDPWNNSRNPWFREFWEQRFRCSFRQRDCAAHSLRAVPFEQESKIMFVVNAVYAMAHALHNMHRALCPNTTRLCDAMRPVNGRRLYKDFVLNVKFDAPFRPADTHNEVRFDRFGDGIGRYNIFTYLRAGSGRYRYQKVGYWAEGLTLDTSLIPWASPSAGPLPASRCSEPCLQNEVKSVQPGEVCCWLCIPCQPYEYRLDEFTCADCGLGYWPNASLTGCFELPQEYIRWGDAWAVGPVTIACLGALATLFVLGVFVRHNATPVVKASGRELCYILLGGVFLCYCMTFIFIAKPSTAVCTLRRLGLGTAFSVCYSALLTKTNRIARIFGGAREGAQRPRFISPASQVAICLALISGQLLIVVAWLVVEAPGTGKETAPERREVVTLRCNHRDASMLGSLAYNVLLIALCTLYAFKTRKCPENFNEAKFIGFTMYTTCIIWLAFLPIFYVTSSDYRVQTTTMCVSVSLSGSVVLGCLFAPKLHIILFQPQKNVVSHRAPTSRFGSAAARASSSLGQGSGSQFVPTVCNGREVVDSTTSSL

Consider `N[C@@](CC1c2ccccc2Oc2ccccc21)(C(=O)O)[C@@H]1C[C@@]1(F)C(=O)O`, for which the IC50 (usually the midpoint of a concentration-inhibition curve) in data set [1] was greater than 10000 nM.
`NC(CC1c2ccccc2Oc2ccccc21)(C(=O)O)C1CC1(F)C(=O)O` (racemic; form 1) had an IC50 in data set [1] of 4.45 nM.
Turning to `N[C@](CC1c2ccccc2Oc2ccccc21)(C(=O)O)[C@H]1C[C@]1(F)C(=O)O`, the half-life (commonly the time in which the quantity being followed falls by half) in data set [2] was 5.05 h. This compound also showed an IC50 in data set [1] of 3.49 nM. For the same compound, the Cmax (in general, the peak of the concentration-time curve) in data set [3] worked out at 308 ng/mL. For the same compound, in data set [4], the AUC(0-inf) (in general, total exposure, with the tail of the curve extrapolated) amounted to 3310 ng·h/mL. Besides, the Tmax (as a rule, the time from dosing to the highest level) in data set [5] stood at 2.67 h.
`CCCCCCCOC(=O)[C@@]1(F)C[C@@H]1[C@@](N)(CC1c2ccccc2Oc2ccccc21)C(=O)O` had a half-life in data set [2] of 3.87 h. In addition, the highest level in data set [3] (Cmax) was 8640 ng/mL. For the same compound, the values for the transformation ratio at 1 h, 3 µM in data set [6], in data set [7] and in data set [8] were 68.1%, 7.3% and 12.1%, respectively. Moreover, in data set [4], the AUC(0-inf) was found to be 78000 ng·h/mL. Moreover, the Tmax in data set [5] was found to be 2 h.
Turning to `NC(CC1c2ccccc2Oc2ccccc21)(C(=O)O)C1CC1(F)C(=O)O` (racemic; form 2), the IC50 in data set [1] turned out to be 211 nM.
For the compound `N[C@](CC1c2ccccc2Oc2ccccc21)(C(=O)O)[C@H]1C[C@@H]1C(=O)O`, the AUC(0-inf) in data set [4] turned out to be 284 ng·h/mL.

These data come from ChEMBL document CHEMBL1144772, “Synthesis, in vitro pharmacology, and pharmacokinetic profiles of 2-[1-amino-1-carboxy-2-(9H-xanthen-9-yl)-ethyl]-1-fluorocyclopropanecarboxylic acid and its 6-heptyl ester, a potent mGluR2 antagonist” (Bioorg Med Chem, 2008).
